Marks after values point to notes of the source that are not given here.
Experiments:
trained panelists [1] = experiment: time-intensity analysis of cooling, mouthwash application; format: in vivo; conditions: for Iext (cooling intensity at end of evaluation): 15 minutes after expectoration
Procedure: In order to evaluate the potential use of menthol glycinates as […] different food, beverage and oral hygiene products, select compounds were incorporated in different application systems. A beverage model system, a lozenge and a mouthwash application were created, and time-intensity analysis was performed using trained discrimination analysis panelists. Time-Intensity (TI) is a temporal sensory method. During TI evaluations, assessors are asked to score the intensity of perception of a single attribute over consumption of the product. Compared to single point measurements, TI analysis can characterize the onset, decline and rates thereof, of particular sensory characteristics. This analysis may reveal rich information regarding the intensity of an attribute over the time domain and identify temporal perceptual differences among samples that can greatly impact the overall profile of a product. For each sample evaluation, a temporal curve is generated, based on duplication. The temporal curves for each panelist are combined to generate a combined curve for each product that is evaluated. The following distinct parameters were calculated: Imax: peak intensity or maximum observed intensity on the whole curve; […]: time point where the reaction to the stimulus is first perceived on the curve; Tmax: time position of the peak intensity on the curve; Tplateau: protraction of maximum intensity or duration of maximum intensity; Text: time point of extinction of the perception of the stimulus, defined as the position in time after the peak intensity where the measured intensity disappears (or the end of evaluation window); Iext: intensity at time of extinction or end of evaluation; R increase: slope or rate of intensity increase between […] and Tmax; R decrease: slope or rate of intensity decrease between Tmax and Text; and Area: the total area under the time-intensity curve. The formula shown in Table 8 was employed to create a mouthwash product to evaluate […] of interest using time-Intensity analysis. [table] The following test compounds were evaluated: menthol, XI-I-60, RK-2-10, XI-I-65, DK-1-50, and XI-2-73. For time-intensity (T-I) evaluation of the cooling attributes of mouthwash products, 8 panelists were recruited (2 male, 6 female). Panelists were trained in basic taste descriptive analysis. A sweetness reference series (intensity range 2-12) was provided to be used as cross-modality reference to aid in scaling the intensity of the cooling attribute present in the mouthwash samples. Panelists evaluated samples in duplicates and all sample were presented blinded and in a randomized order using a 3-digit code. Panelist evaluated 15 ml of mouthwash at a time and were instructed to rinse for 30 seconds and expectorate. Panelists were instructed to provide cooling intensities before and after expectoration. For the time before expectoration, evaluation started upon introducing the sample and every 10 seconds thereafter. After expectoration, the evaluation continued for 15 minutes and panelists provided cooling intensity ratings at predetermined times. Due to the unique nature of this product and the interest in prolonging the cooling attribute long after consumption, an additional parameter led was evaluated among samples via ANOVA. This parameter is the cooling intensity at time of extinction or in our case the end of evaluation. Data analysis for generation of T-I statistics and ANOVA analysis to determine significant difference among samples was performed using R STUDIO.

[2] = estimated, relative to menthol; cited from earlier work
trained panelists [3] = experiment: time-intensity analysis of cooling, lozenge application; format: in vivo; conditions: 4-minute window
Procedure: In order to evaluate the potential use of menthol glycinates as […] different food, beverage and oral hygiene products, select compounds were incorporated in different application systems. A beverage model system, a lozenge and a mouthwash application were created, and time-intensity analysis was performed using trained discrimination analysis panelists. Time-Intensity (TI) is a temporal sensory method. During TI evaluations, assessors are asked to score the intensity of perception of a single attribute over consumption of the product. Compared to single point measurements, TI analysis can characterize the onset, decline and rates thereof, of particular sensory characteristics. This analysis may reveal rich information regarding the intensity of an attribute over the time domain and identify temporal perceptual differences among samples that can greatly impact the overall profile of a product. For each sample evaluation, a temporal curve is generated, based on duplication. The temporal curves for each panelist are combined to generate a combined curve for each product that is evaluated. The following distinct parameters were calculated: Imax: peak intensity or maximum observed intensity on the whole curve; […]: time point where the reaction to the stimulus is first perceived on the curve; Tmax: time position of the peak intensity on the curve; Tplateau: protraction of maximum intensity or duration of maximum intensity; Text: time point of extinction of the perception of the stimulus, defined as the position in time after the peak intensity where the measured intensity disappears (or the end of evaluation window); Iext: intensity at time of extinction or end of evaluation; R increase: slope or rate of intensity increase between […] and Tmax; R decrease: slope or rate of intensity decrease between Tmax and Text; and Area: the total area under the time-intensity curve. The formula detailed in Table 4 was employed to create the lozenge application to evaluate menthol glycinates of interest using time-intensity analysis. [table] For time-intensity (T-I) evaluation of the cooling intensity of lozenges, 9 panelists were recruited (3 male, 6 female). Panelists were trained in basic taste descriptive analysis. A sweetness reference series (intensity range 2-12) was provided to be used as cross-modality reference to aid in scaling the intensity of the cool attribute present in the lozenge samples. Panelists evaluated samples in duplicates and all samples were presented blinded and in a randomized order using a 3-digit code. Panelists were instructed to provide cooling intensity at predetermined time points throughout an evaluation window of 4 minutes. […] Evaluations were performed with at least 4 hours between them to ensure no carry over. Data analysis for generation of T-I statistics and ANOVA analysis to determine significant difference among samples was performed using R STUDIO.

[4] = after expectoration for 15 minutes (Table 9b)
[5] = rinse phase 30 seconds (Table 9a)

Row | Molecule | Iext (cooling intensity at end of evaluation) (trained panelists [1]) | AUC (trained panelists [1]; [4]) | I max (trained panelists [1]; [4]) | Rdec (trained panelists [1]; [4]) | Tmax (trained panelists [1]; [4]) | Tstart (trained panelists [1]; [4]) | AUC (trained panelists [1]; [5]) | Rinc (trained panelists [1]; [5]) | Tstart (trained panelists [1]; [5]) | times cooler than menthol (cooling potential) [2] | AUC (total area under time-intensity curve) (trained panelists [3]) | further results
1 | (1R,2S,5R)-2-Isopropyl-5-methylcyclohexyl 2-(benzyl(methyl)amino)acetate [Product 15] | 0.67^a | 4082.50^ac | 13.50^ab | −0.01^b | 32.50^a | 30.00^a | 179.79^a | 0.21^a | 10.00^a |  |  | 
2 | Cc1cc2ccccc2n1CCNC(=O)[C@@H]1C[C@H](C)CC[C@H]1C(C)C [compound 1] |  |  |  |  |  |  |  |  |  | ~1000 times |  | 
3 | CC(C)[C@@H]1CC[C@@H](C)C[C@H]1C(=O)NCCc1ccccn1 [amide 19] |  |  |  |  |  |  |  |  |  | about 100 times |  | 
4 | (1R,2S,5R)-2-isopropyl-5-methylcyclohexyl 2-(cyclopropylamino)acetate [Product 12] |  |  |  |  |  |  |  |  |  |  | 1945.31^bc | RDec (rate of intensity decrease) (trained panelists [3]): 0.042^ab; RInc (rate of intensity increase) (trained panelists [3]): 0.042^ab; Tmax (time of peak intensity) (trained panelists [3]): 206.25^a
5 | CC(C)[C@@H]1CC[C@@H](C)C[C@H]1OC(=O)CNC1CC1 [Product 12, (1R,2S,5R)-2-isopropyl-5-methylcyclohexyl 2-(cyclopropylamino)acetate] |  | 5211.25^bc | 13.20^ab | −0.01^b | 32.50^a | 30.00^a | 186.88^a | 0.23^a | 10.00^a |  | not significantly different than menthol | Iext (cooling intensity at end of evaluation) (trained panelists [1]; listed as XI-1-66): significantly higher cooling intensity; Iext (cooling intensity at end of evaluation) (trained panelists [1]; listed as XI-I-65): 2.18^b; Rinc (trained panelists [1]; after expectoration for 15 minutes (Table 9b), listed as XI-I-65): 0.03^b; Rinc (trained panelists [1]; after expectoration for 15 minutes (Table 9b), listed as XI-I-66): positive and significantly higher compared to that of menthol; Rdec (trained panelists [1]; rinse phase 30 seconds (Table 9a), listed as XI-165): significantly lower R decrease; Rdec (trained panelists [1]; rinse phase 30 seconds (Table 9a), listed as XI-I-65): 0.00^b
6 | CC(C)NCC(=O)O[C@@H]1C[C@H](C)CC[C@H]1C(C)C [Product 7, (1R,2S,5R)-2-Isopropyl-5-methylcyclohexyl 2-(isopropylamino)acetate] | significantly higher cooling intensity | significantly higher |  |  |  |  |  |  |  |  |  | Tstart (time cooling first perceived) (trained panelists [3]): significantly delayed cooling onset; Imax (trained panelists [1]; [5]): trending higher; Rdec (trained panelists [1]; [5]): significantly lower R decrease
